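Results reflect a 48-hour exposure of cells in 96-well plates to compound at five concentrations. TGI denotes the concentration required for complete inhibition of growth.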

Test systems include OVCAR-5 ovarian; SF-539 CNS; NCI-H226 lung; NCI-H23 lung; SF-295 CNS; SR leukemia; HL-60(TB) leukemia; IGROV1 ovarian; SNB-75 CNS; HS 578T breast; LOX IMVI melanoma; HCC-2998 colon; CCRF-CEM leukemia; OVCAR-8 ovarian; M14 melanoma; SW-620 colon; RXF 393 renal; U251 CNS; OVCAR-4 ovarian.
Common to all, as to assay: growth of human tumour cells (NCI), 48 h

Take `NC(N)=NS(=O)(=O)c1ccc(NNC(=O)c2cccc3c(=O)c4ccccc4[nH]c23)cc1`: the TGI in the test on OVCAR-5 ovarian is > 100 µM; in the test on SF-539 CNS, 58.7 µM; in the test with NCI-H226 lung, 67.2 µM; in the test with NCI-H23 lung, 87 µM; in the test with SF-295 CNS it was > 100 µM; with SR leukemia, > 100 µM. Besides, the TGI in the test with HL-60(TB) leukemia is 62.1 µM; in the test with IGROV1 ovarian, > 100 µM; in the test with SNB-75 CNS, > 100 µM; in the test on HS 578T breast it was > 100 µM; with LOX IMVI melanoma, 47.7 µM; in the test on HCC-2998 colon, 38.3 µM. In addition, the TGI in the test on CCRF-CEM leukemia was > 100 µM; with OVCAR-8 ovarian, 59.4 µM; with M14 melanoma it was 34.9 µM; in the test on SW-620 colon, > 100 µM; in the test on RXF 393 renal it was 77.2 µM; in the test with U251 CNS, > 100 µM. The same compound returned a TGI with OVCAR-4 ovarian of 83.5 µM.

Regarding `Cc1cc(S(=O)(=O)Nc2n[nH]c(Nc3ccc4ccccc4c3)n2)c(S)cc1Cl`, the TGI in the test with OVCAR-5 ovarian is > 100 µM; in the test with SF-539 CNS it was 35.1 µM; with NCI-H226 lung, > 100 µM; in the test with NCI-H23 lung, > 100 µM; with SF-295 CNS, 76.9 µM; in the test with SR leukemia, > 100 µM. The TGI with HL-60(TB) leukemia is > 100 µM; in the test with IGROV1 ovarian, > 100 µM; with SNB-75 CNS, > 100 µM; in the test on HS 578T breast it was 69.9 µM; with LOX IMVI melanoma, > 100 µM; in the test on HCC-2998 colon it was > 100 µM. For the same compound, the TGI in the test on CCRF-CEM leukemia, with OVCAR-8 ovarian, with M14 melanoma, in the test with SW-620 colon, with RXF 393 renal and with U251 CNS was > 100 µM each time. In the test on OVCAR-4 ovarian, the TGI was > 100 µM.

On to `COc1cc(C(C[N+](=O)[O-])SC(C)=O)ccc1OCc1ccccc1` (stereo not drawn), for which the TGI with OVCAR-5 ovarian amounted to 29.6 µM; in the test on SF-539 CNS, 4.87 µM; with NCI-H226 lung it was 18.1 µM; with NCI-H23 lung it was 12.3 µM; in the test with SF-295 CNS it was 10.3 µM; in the test on SR leukemia, 4.86 µM. Moreover, the TGI is 1.57 µM with HL-60(TB) leukemia; 7.36 µM in the test on IGROV1 ovarian; 32.4 µM in the test with SNB-75 CNS; 12.1 µM in the test on HS 578T breast; 3.35 µM in the test with LOX IMVI melanoma; 46.6 µM in the test with HCC-2998 colon. Moreover, the TGI in the test with CCRF-CEM leukemia was > 100 µM; with OVCAR-8 ovarian, 13.6 µM; in the test with M14 melanoma it was 11.2 µM; in the test with SW-620 colon it was 10.6 µM; with RXF 393 renal, 3.18 µM; with U251 CNS it was 22.7 µM. In the test with OVCAR-4 ovarian, this compound displayed a TGI of 27.7 µM.

For `COC1CC(C)([N+](=O)[O-])C(O)C(C)O1` (stereo not drawn), the TGI in the test on OVCAR-5 ovarian, with SF-539 CNS, in the test with NCI-H226 lung, in the test with NCI-H23 lung, in the test on SF-295 CNS and in the test with SR leukemia was > 100 µM in each case. In addition, the TGI in the test on HL-60(TB) leukemia, in the test with IGROV1 ovarian, in the test on SNB-75 CNS, in the test with HS 578T breast, with LOX IMVI melanoma and with HCC-2998 colon was > 100 µM throughout. Also, the TGI with CCRF-CEM leukemia, in the test on OVCAR-8 ovarian, in the test with M14 melanoma, in the test on SW-620 colon, in the test on RXF 393 renal and in the test with U251 CNS was > 100 µM throughout. The TGI in the test on OVCAR-4 ovarian is > 100 µM.

As to `CCN(CC)c1ccc2cc(C(=O)NCc3ccccc3)c(=N)oc2c1`, the TGI in the test on OVCAR-5 ovarian is > 100 µM; in the test on SF-539 CNS, > 100 µM; in the test on NCI-H226 lung it was > 100 µM; with NCI-H23 lung, 97 µM; in the test on SF-295 CNS it was > 100 µM; in the test with SR leukemia, > 100 µM. Also, the TGI in the test with HL-60(TB) leukemia was > 100 µM; in the test on IGROV1 ovarian, > 100 µM; with SNB-75 CNS, > 100 µM; in the test with HS 578T breast, > 88 µM; in the test on LOX IMVI melanoma, > 100 µM; in the test on HCC-2998 colon it was > 100 µM. Also, the TGI with CCRF-CEM leukemia, in the test with OVCAR-8 ovarian, in the test with M14 melanoma, in the test with SW-620 colon, in the test with RXF 393 renal and in the test with U251 CNS was > 100 µM each time. The TGI in the test with OVCAR-4 ovarian is > 100 µM.

Turning to `NC(=O)c1nnsc1NN=O`, the TGI in the test on OVCAR-5 ovarian, with SF-539 CNS, in the test with NCI-H226 lung, in the test with NCI-H23 lung, in the test with SF-295 CNS and in the test with SR leukemia was > 100 µM in each case. For the same compound, the TGI in the test with HL-60(TB) leukemia, in the test with IGROV1 ovarian, with SNB-75 CNS, in the test with HS 578T breast, in the test on LOX IMVI melanoma and in the test on HCC-2998 colon was > 100 µM each time. In addition, the TGI with CCRF-CEM leukemia, in the test on OVCAR-8 ovarian, in the test with M14 melanoma, with SW-620 colon, in the test with RXF 393 renal and in the test on U251 CNS was > 100 µM in each case. In the test on OVCAR-4 ovarian, the TGI was > 100 µM.

For the compound `CC(C)[Si]1(C(C)C)OCC2OC(n3c(C(=O)c4ccccc4)cc(=O)[nH]c3=O)CC2O[Si](C(C)C)(C(C)C)O1` (stereo not drawn), the TGI in the test on OVCAR-5 ovarian is 10.1 µM; in the test with SF-539 CNS, 8.6 µM; with NCI-H226 lung, 5.87 µM; with NCI-H23 lung, 6.13 µM; in the test on SF-295 CNS, 13.8 µM; in the test on SR leukemia, > 23.8 µM. For the same compound, the TGI with HL-60(TB) leukemia is > 28.6 µM; in the test with IGROV1 ovarian, 10.1 µM; in the test on SNB-75 CNS, 6.7 µM; with HS 578T breast it was 5.5 µM; in the test on LOX IMVI melanoma it was 3.93 µM; with HCC-2998 colon, 3.41 µM. For the same compound, the TGI in the test on CCRF-CEM leukemia was 5.12 µM; in the test with OVCAR-8 ovarian it was 4.43 µM; with M14 melanoma it was 14.4 µM; in the test with SW-620 colon, 8.32 µM; in the test on RXF 393 renal, 7.37 µM; with U251 CNS, 9.85 µM. The same compound came in with a TGI with OVCAR-4 ovarian of 8.36 µM.

As for `CCc1cc2c(c3c1CCCC3)CC1(Cc3ccc(C(=O)OC)cc3C1)C2` (stereo not drawn), the TGI in the test with OVCAR-5 ovarian is > 100 µM; in the test on SF-539 CNS, > 100 µM; with NCI-H226 lung, > 100 µM; with NCI-H23 lung, > 100 µM; in the test with SF-295 CNS it was > 100 µM; in the test with SR leukemia, 85.1 µM. The TGI was 51.6 µM in the test with HL-60(TB) leukemia; > 100 µM with IGROV1 ovarian; > 100 µM in the test with SNB-75 CNS; > 100 µM in the test on HS 578T breast; > 100 µM in the test on LOX IMVI melanoma; > 100 µM in the test on HCC-2998 colon. Also, the TGI with CCRF-CEM leukemia is 56 µM; in the test with OVCAR-8 ovarian, > 100 µM; with M14 melanoma, > 100 µM; in the test on SW-620 colon, > 100 µM; with RXF 393 renal it was > 100 µM; in the test with U251 CNS, > 100 µM. Also, the TGI with OVCAR-4 ovarian is > 100 µM.

Take `COc1cc(/C=N/c2ccccn2)cc(OC)c1OC`: the TGI in the test with OVCAR-5 ovarian, in the test on SF-539 CNS, with NCI-H226 lung, in the test with NCI-H23 lung, with SF-295 CNS and in the test with SR leukemia was > 100 µM each time. The TGI in the test on HL-60(TB) leukemia, with IGROV1 ovarian, in the test on SNB-75 CNS, with HS 578T breast, with LOX IMVI melanoma and with HCC-2998 colon was > 100 µM throughout. In addition, the TGI in the test with CCRF-CEM leukemia, in the test on OVCAR-8 ovarian, in the test with M14 melanoma, in the test on SW-620 colon, in the test with RXF 393 renal and with U251 CNS was > 100 µM each time. Further, the TGI in the test on OVCAR-4 ovarian is > 100 µM.

As for `O=C(Cn1c(=O)oc2ccc(C(=O)c3ccc(F)cc3)cc21)c1ccccc1`, the TGI in the test on OVCAR-5 ovarian, with SF-539 CNS, with NCI-H226 lung, in the test on NCI-H23 lung, with SR leukemia and in the test with HL-60(TB) leukemia was > 100 µM in each case. Also, the TGI with IGROV1 ovarian, with SNB-75 CNS, in the test with HS 578T breast, in the test with LOX IMVI melanoma, in the test on HCC-2998 colon and with CCRF-CEM leukemia was > 100 µM each time. Besides, the TGI in the test with OVCAR-8 ovarian, in the test with M14 melanoma, with SW-620 colon, with RXF 393 renal, with U251 CNS and with OVCAR-4 ovarian was > 100 µM throughout.

For `CC(=O)C1(C)CC(C#N)(C#N)C(C#N)=C1N` (stereo not drawn), the TGI in the test with OVCAR-5 ovarian, with SF-539 CNS, in the test with NCI-H226 lung, in the test on NCI-H23 lung, in the test with SF-295 CNS and with SR leukemia was > 100 µM each time. Further, the TGI with HL-60(TB) leukemia, in the test with IGROV1 ovarian, with SNB-75 CNS, in the test on HS 578T breast, in the test with LOX IMVI melanoma and in the test with HCC-2998 colon was > 100 µM in each case. Also, the TGI with CCRF-CEM leukemia, in the test with OVCAR-8 ovarian, with M14 melanoma, in the test on SW-620 colon, in the test with RXF 393 renal and with U251 CNS was > 100 µM each time. Also, the TGI with OVCAR-4 ovarian was > 100 µM.

For the origin of these results see PubChem BioAssay (NCI).
